Reference: the supplement of paper PMC8882468

How the values were obtained:
Assay in all cases: CTG-3D luminescence at 96 h relative to day-0 seeding control (ratio to day 0); higher = more growth / less cytotoxicity; PDxO 3D drug screen, 96 h, CTG-3D normalised to day-0 seeding control.
HCI-024 = system: HCI-024 (organoid from a breast cancer xenograft)
HCI-005.E2 = system: HCI-005.E2 (organoid from a breast cancer xenograft with a HER2-positive history)
HCI-012 = system: HCI-012 (organoid from a breast cancer xenograft)
HCI-017.E2 = system: HCI-017.E2 (organoid from an ER-positive breast cancer xenograft)
HCI-001 = system: HCI-001 (organoid from a triple-negative breast cancer xenograft)
HCI-003.E2 = system: HCI-003.E2 (organoid from an ER-positive breast cancer xenograft)

NC(=O)c1cccc2cn(-c3ccc([C@@H]4CCCNC4)cc3)nc12 [niraparib]
CTG-3D luminescence at 96 h
Settings | 12.5 pM | 0.00025 µM | 0.005 µM | 0.1 µM | 1 µM | 10 µM | 100 µM | 625 fM
HCI-001, days in culture: 240 | 1.8 | 0.913 | 0.843 | 1.05 | 1.61 | 1.03 | -0.07 | 1.32
HCI-001, days in culture: 260 | 2.65 | 1.11 | 2.11 | 1.64 | 1.53 | 1.92 | -0.0335 | 1.4
HCI-001, days in culture: 269 | 1.85 | 1.93 | 1.42 | 1.32 | 1.1 | 1.23 | -0.00141 | 1.67
HCI-001, days in culture: 327 | 1.97 | 1.95 | 2.3 | 1.8 | 1.66 | 1.28 | -0.186 | 2.27
HCI-001, days in culture: 346 | 1.69 | 1.24 | 1.24 | 1.4 | 1.51 | 1.1 | -0.143 | 1.28
HCI-001, days in culture: 364 | 1.81 | 1.28 | 1.69 | 1.33 | 1.33 | 1.2 | -0.0638 | 1.67
HCI-012, days in culture: 143 | 2.27 | 2.44 | 2.4 | 2.56 | 1.52 | 0.467 | -0.00164 | 1.73
HCI-012, days in culture: 162 | 2.37 | 2.45 | 2.2 | 2.6 | 0.841 | 0.415 | -0.00213 | 3.12
HCI-012, days in culture: 201 | 3.14 | 2.4 | 1.89 | 1.81 | 1.95 | 0.307 | -0.207 | 1.71
HCI-017.E2, days in culture: 85 | 2.25 | 2.22 | 2.21 | 2.63 | 2.09 | 1.81 | 0.00236 | 1.95
HCI-024, days in culture: 105 | 1.48 | 1.61 | 1.14 | 1.43 | 1.44 | 1.27 | 0.00247 | 1.56
HCI-024, days in culture: 122 | 2.12 | 2.38 | 2.08 | 1.71 | 1.88 | 1.29 | 0.00108 | 2.15
HCI-024, days in culture: 163 | 1.73 | 1.86 | 1.82 | 2.37 | 1.78 | 1.17 | 0.00351 | 2.44

CTG-3D luminescence at 96 h
Settings | 12.5 pM | 0.00025 µM | 0.005 µM | 0.1 µM | 1 µM | 10 µM | 100 µM | 625 fM
HCI-003.E2 | 2.06 | 2.18 | 1.93 | 2.06 | 1.81 | 1.28 | -0.000881 | 1.94
HCI-005.E2 | 1.22 | 1.61 | 1.3 | 1.62 | 1.51 | 1.05 | -0.00126 | 1.35
HCI-017.E2 | 1.823 | 1.66 | 1.89 | 1.61 | 1.48 | 1.58 | 0.00319 | 1.94
